Source: patent publication US11713339B2, “Macrocyclization of peptidomimetics” (UNIVERSITY OF WARWICK, priority 2018, dated 2023)
“And” between values parts separate entries of the source, which are not always exact repeats. Equal entries are not always repeated. Where two headings read alike, the source gives them in different places.

How the values were obtained:
[1] = target: T1, porcine Aminopeptidase N (APN) (Sus scrofa, UniProt P15145); assay: in vitro inhibition assay of aminopeptidase N (spectrophotometric, L-leucine-p-nitroanilide substrate); assay type: biochemical; conditions: microsomal aminopeptidase from porcine kidney (pAPN), L-leucine-p-nitroanilide 250 μM, PBS pH 7.2, 37° C., 1 hour, UV 405 nm
T1 construct: microsomal aminopeptidase from porcine kidney (pAPN, Sigma Aldrich) (18 units/mg protein); purchased Sigma Aldrich; host or cells: porcine kidney (tissue-derived enzyme preparation)
T1 sequence (P15145 1-963): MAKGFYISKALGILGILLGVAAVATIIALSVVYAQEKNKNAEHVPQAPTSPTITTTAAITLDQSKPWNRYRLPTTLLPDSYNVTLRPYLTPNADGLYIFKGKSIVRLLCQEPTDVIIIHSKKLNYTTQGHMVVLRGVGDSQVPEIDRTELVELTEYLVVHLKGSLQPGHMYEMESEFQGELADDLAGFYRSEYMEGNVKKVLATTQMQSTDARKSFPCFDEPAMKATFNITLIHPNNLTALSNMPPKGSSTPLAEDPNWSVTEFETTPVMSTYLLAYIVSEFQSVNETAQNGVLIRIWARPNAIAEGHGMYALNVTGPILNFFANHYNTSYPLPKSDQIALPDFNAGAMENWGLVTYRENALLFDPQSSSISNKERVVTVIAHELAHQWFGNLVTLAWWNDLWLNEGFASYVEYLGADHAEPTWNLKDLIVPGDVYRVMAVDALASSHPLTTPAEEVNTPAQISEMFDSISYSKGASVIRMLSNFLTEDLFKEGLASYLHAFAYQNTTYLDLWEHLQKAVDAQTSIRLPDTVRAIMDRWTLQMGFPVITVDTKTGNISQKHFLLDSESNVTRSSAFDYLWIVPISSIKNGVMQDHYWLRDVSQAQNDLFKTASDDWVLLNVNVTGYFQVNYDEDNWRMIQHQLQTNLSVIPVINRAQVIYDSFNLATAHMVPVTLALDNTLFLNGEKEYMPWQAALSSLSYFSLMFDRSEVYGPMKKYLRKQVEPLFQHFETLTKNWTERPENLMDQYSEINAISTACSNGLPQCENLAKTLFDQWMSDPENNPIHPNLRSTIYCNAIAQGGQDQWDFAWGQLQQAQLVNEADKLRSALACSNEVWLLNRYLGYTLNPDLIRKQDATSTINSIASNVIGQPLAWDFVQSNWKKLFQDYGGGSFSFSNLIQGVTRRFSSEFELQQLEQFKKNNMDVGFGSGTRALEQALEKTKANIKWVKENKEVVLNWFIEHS
Method: IC50 values were calculated by following the formation of p-nitroaniline. Formation of p-nitroaniline was monitored by measurement of the UV absorption at 405 nm on a Hidex Sense plate reader. The assay was performed in a 96-well plate in PBS buffer (pH 7.2, 1.47 mM KH2PO4, 7.8 mM Na2HPO4, 137 mM NaCl, 2.7 mM KCl, 1.8 mM CaCl2, 1.8 mM MgCl2) at 37° C. with a total volume of 100 μL. […] The peptides were incubated with the enzyme (1.0 μg/mL) for 5 min. before a solution of L-leucine-p-nitroanilide was added with a final concentration of 250 μM. The plate was incubated at 37° C. for 1 hour before the p-nitroaniline was detected. […] For the calculation of the IC50 values log of the concentration was plotted against the UV absorption in GraphPad Prism 5 using nonlinear regression (variable slope (four parameters) with interpolation) for analysis.

[2] = amide bond, DMF, 25.0 °C
[3] = 25.0 °C
[4] = 25.0 °C; remark: listed apart in the source
[5] = amide bond, 12-membered ring, DEPBT/DIPEA, DMF, 1.0 mM

In the case of `N=C(N)NCCC[C@@H]1NC2(CNC(=O)[C@H](CC(N)=O)NC(=O)[C@@H](N)CSSC[C@@H](C(=O)O)NC1=O)COC2` [Compound 12, Cyclo(H-CVs-Asn-GOx-Arg-CVs-OH)], the IC50 [1] is reported as 175 µM.
In the case of `CC(C)C[C@@H]1NC(=O)[C@H](Cc2ccc(O)cc2)NC(=O)[C@H](C)NC2(CNC(=O)[C@H](C)NC1=O)COC2` [Cyclo(Ala-GOx-Ala-Tyr-Leu)], the ring closure, yield of all isomers ([2]; from CC(C)C[C@H](NC(=O)[C@H](Cc1ccc(O)cc1)NC(=O)[C@H](C)NC1(CNC(=O)[C@H](C)N)COC1)C(=O)O, DEPBT/DIPEA, 1.0 mM, 24.0 h) is reported as 54%.
With `CC(C)C[C@@H]1NC(=O)[C@H](Cc2ccc(O)cc2)NC(=O)[C@H](C)NC(=O)CNC(=O)[C@H](C)NC1=O` [Cyclo(Ala-Gly-Ala-Tyr-Leu)] the ring closure, yield of all isomers ([2]; from CC(C)C[C@H](NC(=O)[C@H](Cc1ccc(O)cc1)NC(=O)[C@H](C)NC(=O)CNC(=O)[C@H](C)N)C(=O)O, DEPBT/DIPEA, 1.0 mM, 24.0 h) was 42%.
Work on `CC(C)C[C@@H]1NC(=O)[C@H](Cc2cn(C(=O)OC(C)(C)C)c3ccccc23)NC(=O)CNC2(CNC1=O)COC2` [Cyclo(Leu-GOx-Gly-Trp(Boc))] yielded a ring closure, yield of all isomers ([2]; from CC(C)C[C@H](N)C(=O)NCC1(NCC(=O)N[C@@H](Cc2cn(C(=O)OC(C)(C)C)c3ccccc23)C(=O)O)COC1, DEPBT, 1.0 mM, 64.0 h, 6 steps) of 39%.
In the case of `CC(C)C[C@@H]1NC(=O)[C@H](Cc2c[nH]c3ccccc23)NC(=O)CNC2(COC2)[C@H](C)NC1=O` [Cyclo(Trp-Leu-AOx-Gly)], the ring closure, yield of all isomers ([2]; from CC(C)C[C@H](NC(=O)[C@@H](N)Cc1c[nH]c2ccccc12)C(=O)N[C@@H](C)C1(NCC(=O)O)COC1, DEPBT, 1.0 mM, 48.0 h) is reported as 50%.
With `CC(C)C[C@@H]1NC(=O)[C@H](Cc2c[nH]c3ccccc23)NC(=O)CNC2(CNC1=O)COC2` [Cyclo(Trp-Leu-GOx-Gly)] the ring closure, yield of all isomers ([2]; from CC(C)C[C@H](NC(=O)[C@@H](N)Cc1c[nH]c2ccccc12)C(=O)NCC1(NCC(=O)O)COC1, DEPBT/DIPEA, 1.0 mM, 48.0 h) was 65%.
Compound `CC(C)C[C@@H]1NC(=O)[C@H](Cc2c[nH]c3ccccc23)NC(=O)CNC(=O)CNC1=O` [Cyclo(Trp-Leu-Gly-Gly)] has a ring closure, yield of all isomers ([2]; from CC(C)C[C@H](NC(=O)[C@@H](N)Cc1c[nH]c2ccccc12)C(=O)NCC(=O)NCC(=O)O, PyBOP/DIPEA, 1.0 mM, 48.0 h) of 15%.
With `CC(C)C[C@@H]1NC(=O)[C@H](Cc2ccccc2)NC(=O)[C@H]([C@@H](C)OC(C)(C)C)NC2(CNC(=O)[C@H](C(C)C)NC(=O)[C@H](Cc3ccc(OC(C)(C)C)cc3)NC1=O)CN(C(=O)OC(C)(C)C)C2` [Cyclo-(Leu-Tyr(^tBu)-Val-GAz(Boc)-Thr(^tBu)-Phe)] the ring closure, yield of all isomers ([2]; from CC(C)C[C@H](N)C(=O)N[C@@H](Cc1ccc(OC(C)(C)C)cc1)C(=O)N[C@H](C(=O)NCC1(N[C@H](C(=O)N[C@@H](Cc2ccccc2)C(=O)O)[C@@H](C)OC(C)(C)C)CN(C(=O)OC(C)(C)C)C1)C(C)C, DEPBT, 5.0 mM, 48.0 h) was 57%.
With `C[C@@H](OC(C)(C)C)[C@@H]1NC2(CNC(=O)[C@H](CCC(=O)OC(C)(C)C)NC(=O)[C@H](Cc3ccccc3)NC(=O)CNC1=O)CN(C(=O)OC(C)(C)C)C2` [Cyclo-(Phe-Glu(^tBu)-GAz(Boc)-Thr(^tBu)-Gly)] the ring closure, yield of all isomers ([2]; from C[C@@H](OC(C)(C)C)[C@H](NC1(CNC(=O)[C@H](CCC(=O)OC(C)(C)C)NC(=O)[C@@H](N)Cc2ccccc2)CN(C(=O)OC(C)(C)C)C1)C(=O)NCC(=O)O, DEPBT, 5.0 mM, 68.0 h) was 73%.
Compound Cyclo(Ala-GOx-Ala-Tyr-Leu) has a ring closure, isolated yield ([3]; amide bond, 15-membered ring, DEPBT/DIEA, DMF, 1.0 mM) of 54%.
Cyclo(Ala-Gly-Ala-Tyr-Leu) showed a ring closure, isolated yield ([3]; amide bond, 15-membered ring, DEPBT/DIPEA, DMF, 1.0 mM) of 42%.
For Cyclo(Ala-Trp-GOx-Gly-Leu), the ring closure, yield after HPLC ([4]; amide bond, 15-membered ring, DEPBT/DIPEA, DMF, 1.0 mM, with chain assembly) was 13%.
Compound Cyclo(Boc-Cys-GOx-Cys-OtBu) has a ring closure, isolated yield ([3]; disulfide bond, 11-membered ring, I2, MeOH, 5.0 mM) of 64%.
With Cyclo(H-CVs-Asn-GOx-Arg-CVs-OH) the ring closure, yield after HPLC ([4]; disulfide bond, 17-membered ring, I2, MeOH, 10.0 mM, 2 steps) was 32%.
In the case of Cyclo(Leu-GOx-Gly-Trp(Boc)), the ring closure, isolated yield ([3]; amide bond, 12-membered ring, DEPBT/DIPEA, DMF, 1.0 mM, with chain assembly) is reported as 39%.
Cyclo(Met-Ala-Trp-GOx-Gly-Leu) showed a ring closure, yield after HPLC ([4]; amide bond, 18-membered ring, DEPBT/DIPEA, DMF, 1.0 mM, with chain assembly) of 7%.
In the case of Cyclo(Ser-Met-Ala-Trp-GOx-Gly-Leu), the ring closure, yield after HPLC ([4]; amide bond, 21-membered ring, DEPBT/DIPEA, DMF, 1.0 mM, with chain assembly) is reported as 13%.
For Cyclo(Trp-Leu-AOx-Gly), the ring closure, isolated yield [3, 5] was 49% and 50%.
Cyclo(Trp-Leu-GOx-Gly) gave a ring closure, isolated yield ([3]; amide bond, 12-membered ring, DEPBT/DIEA, DMF, 1.0 mM) of 65%.
In the case of Cyclo(Trp-Leu-Gly-Gly), the ring closure, isolated yield ([3]; amide bond, 12-membered ring, PyBOP/DIEA, DMF, 1.0 mM) is reported as 15%.
Cyclo-((D)Pro-Leu-GAz(Boc)-Gly) showed a ring closure, isolated yield [3, 5] of 79%.
“Cyclo-(Leu-Tyr(^tBu)-Val-GAz(Boc)-Thr(^tBu)-Phe)” gave a ring closure, isolated yield ([3]; amide bond, 18-membered ring, DEPBT/DIPEA, DMF, 5.0 mM) of 57%.
Compound “Cyclo-(Phe-Glu(^tBu)-GAz(Boc)-Thr(^tBu)-Gly)” has a ring closure, isolated yield ([3]; amide bond, 15-membered ring, DEPBT/DIPEA, DMF, 5.0 mM) of 73%.
